Experimental data published in ChEMBL document CHEMBL1759893, “1,4-Diazepane compounds as potent and selective CB2 agonists: optimization of metabolic stability” (Bioorg Med Chem Lett, 2011).
Converted amounts (≈) assume the structure as drawn.

Assays:
[1] = Aqueous solubility of the compound at pH 7.4; assay type: physicochemical; settings: buffer
Homo sapiens = organism: Homo sapiens; experiment: Hepatic blood flow in human; assay type: ADME, organism-based, Liver
[2] = AUC (0 to infinity) in Wistar rat at 10 umol/kg, po; assay type: ADME, organism-based, Wister; design: dose 10 umol/kg, route oral, time infinity; settings: plasma
[3] = Oral bioavailability in Wistar rat at 10 umol/kg; assay type: ADME, organism-based, Wister; settings: in vivo
Rattus norvegicus = organism: Rattus norvegicus; experiment: Hepatic blood flow in rat; assay type: ADME, organism-based, Liver
[4] = Volume of distribution at steady state in Wistar rat at 1 umol/kg, iv; assay type: ADME, organism-based, Wister; settings: in vivo, read-out: Vdss
[5] = Cmax in Wistar rat at 10 umol/kg, po; assay type: ADME, organism-based, Wister; design: dose 10 umol/kg, route oral; settings: in vivo

| SMILES | solubility [1] [mg/mL] | QH (Homo sapiens) [%] | AUC(0-inf) [2] [nM·h] | bioavailability [3] [%] | QH (Rattus norvegicus) [%] | Vd [4] [L/kg] | Cmax [5] [µg/mL] |
| --- | --- | --- | --- | --- | --- | --- | --- |
| CCCCc1ccc(NC(=O)N2CCCN(C(=O)CCC3CCCC3)CC2)cc1 | 0.003 (≈ 7.51 µM) | – | – | – | – | – | – |
| CC(C)(C)c1cc(NC(=O)N2CCCN(C(=O)C3CCOCC3)CC2)no1 | > 0.037 | < 24 | 1380 | 28 | 35 | 0.87 | 1.76 |
| CC(C)(C)c1cc(NC(=O)N2CCCN(C(=O)C3CCOCC3)CC2)on1 | > 0.037 | < 24 | – | – | < 23 | – | – |
| CC(C)(C)c1cc(NC(=O)N2CCCN(C(=O)CN3CCS(=O)(=O)CC3)CC2)no1 | > 0.096 | 50 | – | – | 27 | – | – |
| CC(C)(C)c1cc(NC(=O)N2CCCN(C(=O)N3CCS(=O)(=O)CC3)CC2)no1 | 0.018 (≈ 42.1 µM) | < 24 | – | – | 42 | – | – |
